Measured values: patent publication US10973849B2, “Rhenium complexes and methods of use for treating cancer” (CORNELL UNIVERSITY, priority 2016, dated 2021)
Read-outs that look alike come from different tables or passages of the source.

How the values were obtained:
[1] = test system: human cervical cancer cells (HeLa); experiment: In vitro anticancer activity (MTT) of [Re(CO)3(N—N)(H2O)][OTf] complexes in HeLa cells; assay type: cell-based; details: concentration at which cell proliferation is inhibited by 50%, read-out: IC50 of Re—(H2O) Complex
Procedure: (§1) HeLa (cervical cancer) cell line was cultured using Dulbecco's Modified Eagle's Medium (DMEM) supplemented with 10% fetal bovine serum (FBS). A2780 (ovarian cancer) and A2780CP70 (cisplatin-resistant ovarian cancer) cell lines were cultured as monolayers with Roswell Park Memorial Institute (RPMI)-1640 culture media supplemented with 10% fetal bovine serum. All cell lines were grown in a humidified incubator at 37° C. with an atmosphere of 5% CO2. Cells were passed at 80-90% confluence, using trypsin/EDTA. Cells were tested monthly for mycoplasma contamination with the PlasmoTest™ mycoplasma detection kit from InvivoGen.
(§2) All compounds were dissolved in phosphate-buffered saline (PBS, pH 7.4) to prepare a 1-2 mM stock solution. For single dose studies, only HeLa cells were used. For both the single dose and full dose response, all cells were grown to 80-90% confluence, detached with trypsin/EDTA, seeded in 96-well plates at 2000 cells/well for HeLa cells and 4000 cells/well for A2780 and A2780CP70 cells in 100 μL of growth media, and incubated for 24 hours. The medium was removed and replaced with fresh medium (200 μL) containing a single concentration of a rhenium(I) complex or media. The cells were then incubated for 4 hours, and then the cells were dosed with 365 nm for 1 hour (one plate under the same dosing conditions was kept outside the incubator in the dark as a control). After exposure to light, the plates incubated for an additional 44 hours, the medium was removed from the wells, and (3(4,5-dimethylthiazol-2-yl)-2,5-tetrazolium bromide (MTT) in RPMI (200 μL, 1 mg/mL) was added. After 4 hours, the MTT/RPMI solution was removed, and the formazan crystals were dissolved in 200 μL of an 8:1 mixture of DMSO and pH 10 glycine buffer. The absorbance at 570 nm in each well was measured using a BioTek Synergy™ HT plate reader. Cell viability was determined by normalizing the absorbance of the treated wells to untreated wells. All compounds that had less than 50% cell viability were analyzed using a full dose response. The % viability data is an average of three independent experiments with six replicates per concentration. The same procedure was followed as above for the full dose response but instead, after 24 hours, varying concentrations of the desired compounds were added. Cell viability was again determined by normalizing the absorbance of the treated wells to untreated wells The concentration of the compound versus % viability was plotted to produce dose-response curves, which were analyzed using a logistic sigmoid function fit with MagicPlot Pro™ software. The reported IC50 values are the average of three independent experiments with six replicates per concentration level.
The in vitro anticancer activities of these complexes were tested in human cervical cancer cells (HeLa), and the results are provided below in Table 1. […] The Hill-Slope is a quantitative measure of the steepness of the dose-response curve.

[2] = test system: wild-type (KB) cancer cells; experiment: Cytotoxicity in wild-type KB cancer cells; assay type: cell-based
Procedure: (§3) The Re complex containing the 2,9-dimethyl phen ligand was also tested in wild-type (KB) and cisplatin-resistant (KBCP20) cancer cells.

[3] = test system: cisplatin-resistant (KBCP20) cancer cells; experiment: Cytotoxicity in cisplatin-resistant KBCP20 cancer cells; assay type: cell-based; details: for IC50: cisplatin-resistant cells, read-out: IC50 KBCBP20; for RF (resistance factor): ratio of IC50 values in cisplatin-resistant versus wild-type cell lines
Procedure: as §3

[4] = test system: HeLa (cervical cancer) cell line; experiment: MTT cell viability of phosphino-Re(I) complexes in HeLa cells, dark or 365 nm light; assay type: cell-based, human; details: for Single Dose Cell Viability (%) Light / Single Dose Cell Viability (%) Dark: HeLa cells, single concentration; for Single Dose Cell Viability (%) Dark: kept in the dark
Procedure: as §1, §2

[5] = test system: A2780 (ovarian cancer) cell line; experiment: MTT cell viability of phosphino-Re(I) complexes in A2780 cells, dark or 365 nm light; assay type: cell-based
Procedure: as §1, §2

[6] = test system: A2780CP70 (cisplatin-resistant ovarian cancer) cell line; experiment: MTT cell viability of phosphino-Re(I) complexes in A2780CP70 cells, dark or 365 nm light; assay type: cell-based
Procedure: as §1, §2

[7] = Table 4, HeLa, 365 nm for 1 hour, read-out: IC50 Value (μM) HeLa (light)
[8] = Table 4, HeLa, dark, read-out: IC50 Value (μM) HeLa (dark)
[9] = Table 3, full dose response, 365 nm for 1 hour, read-out: IC50 Value (μM) Light
[10] = Table 3, full dose response, dark, read-out: IC50 Value (μM) Dark
[11] = A2780, 365 nm for 1 hour, read-out: IC50 Value (μM) A2780 (light)
[12] = A2780, dark, read-out: IC50 Value (μM) A2780 (dark)
[13] = A2780CP70, 365 nm for 1 hour, read-out: IC50 Value (μM) A2780CP70 (light)
[14] = A2780CP70, dark, read-out: IC50 Value (μM) A2780CP70 (dark)

Compound	IC50 [1] [µM]	IC50 [4, 9] [µM]	IC50 [4, 10] [µM]	Single Dose Cell Viability (%) Light ([4]; 365 nm for 1 hour) [%]	Single Dose Cell Viability (%) Dark [4] [%]	also measured
Cc1ccc2ccc3ccc(C)nc3c2n1.O.O=S(=O)([O-])C(F)(F)F.[C-]#[O+].[C-]#[O+].[C-]#[O+].[Re+] [2,9-dimethyl phen, [Re(CO)3(N—N)(H2O)][OTf]]	0.97 ± 0.21					IC50 [2]: 0.4 µM; IC50 [3]: 2 µM; RF (resistance factor) [3]: 5
N.N.[Cl][Pt][Cl] [cisplatin, reference compound]	3 ± 1.2					IC50 [2]: 0.8 µM; IC50 [3]: 50 µM; RF (resistance factor) [3]: 62.5
Re(CO)2(phen)(DAPTA)(H2O) [DAPTA-phen dicarb (3b)]						IC50 [4, 7]: > 200 µM; IC50 [4, 8]: > 200 µM
Re(CO)3(bpy)(DAPTA) [DAPTA-bpy (9)]		14.9 ± 3.2	> 200			
Re(CO)3(bpy)(PTA) [PTA-bpy (7)]				90.5 ± 4.1	97.9 ± 3.7	
Re(CO)3(bpy)(THP) [THP-bpy (8)]				73.1 ± 6.4	98.9 ± 1.6	
Re(CO)3(dmbpy)(DAPTA) [DAPTA-dmbpy (12)]		60.3 ± 18.2	> 200			
Re(CO)3(dmbpy)(PTA) [PTA-dmbpy (10)]				82.5 ± 9.7	94.4 ± 4.9	
Re(CO)3(dmbpy)(THP) [THP-dmbpy (11)]				30.7 ± 14.6	93.3 ± 6.0	
Re(CO)3(dmobpy)(DAPTA) [DAPTA-dmobpy (15)]		26.4 ± 9.2	> 200			
Re(CO)3(dmobpy)(PTA) [PTA-dmobpy (13)]				96.0 ± 6.8	98.2 ± 3.2	
Re(CO)3(dmobpy)(THP) [THP-dmobpy (14)]		68 ± 4.3	72.6	12.7 ± 5.8	57.5 ± 11.0	
Re(CO)3(dmphen)(DAPTA) [DAPTA-dmphen (6)]		19.2 ± 2.9	> 200			
Re(CO)3(dmphen)(PTA) [PTA-dmphen (4)]				87.0 ± 8.0	90.0 ± 8.8	
Re(CO)3(dmphen)(THP) [THP-dmphen (5)]		9.6 ± 4.2	> 200	1.3 ± 1.1	61.8 ± 6.2	
Re(CO)3(phen)(DAPTA) [DAPTA-phen (3)]		5.9 ± 1.4	> 200			IC50 ([4]; HeLa, 365 nm for 1 hour, w/ oxyhemoglobin, read-out: IC50 Value (μM) HeLa (light)): > 200 µM; IC50 ([4]; HeLa, dark, w/ oxyhemoglobin, read-out: IC50 Value (μM) HeLa (dark)): > 200 µM; IC50 [4, 7]: 5.9 ± 1.4 µM; IC50 [4, 8]: > 200 µM; IC50 [5, 11]: 2.2 ± 1.1 µM; IC50 [5, 12]: > 200 µM; IC50 [6, 13]: 3.2 ± 0.7 µM; IC50 [6, 14]: > 200 µM
Re(CO)3(phen)(PTA) [PTA-phen (1)]		> 200	> 200	99.6 ± 0.7	99.4 ± 1.0	IC50 [4, 7]: > 200 µM; IC50 [4, 8]: > 200 µM; IC50 [5, 11]: 53.1 ± 2.6 µM; IC50 [5, 12]: > 200 µM; IC50 [6, 13]: > 200 µM; IC50 [6, 14]: > 200 µM
Re(CO)3(phen)(THP) [THP-phen (2)]		26.4 ± 9.2	> 200	2.5 ± 1.8	91.8 ± 8.7	IC50 [4, 7]: 26.4 ± 9.2 µM; IC50 [4, 8]: > 200 µM; IC50 [5, 11]: 4.6 ± 1.4 µM; IC50 [5, 12]: > 200 µM; IC50 [6, 13]: 29.9 ± 7.7 µM; IC50 [6, 14]: > 200 µM
[Re(CO)3(N—N)(H2O)][OTf] [4,4′-dimethoxy bpy]	8.8 ± 2.4					
[Re(CO)3(N—N)(H2O)][OTf] [4,4′-dimethyl bpy]	5.8 ± 3.4					
[Re(CO)3(N—N)(H2O)][OTf] [4,4′dimethylester bpy]	210 ± 30					
[Re(CO)3(N—N)(H2O)][OTf] [4,7-diphenyl phen]	15 ± 7					
[Re(CO)3(N—N)(H2O)][OTf] [bpy]	15 ± 5					
[Re(CO)3(N—N)(H2O)][OTf] [phen]	9.7 ± 5.8					
